Assay results reported in US11198695B2, “Fused ring derivative having MGAT-2 inhibitory activity” (Shionogi & Co., Ltd., priority 2017, dated 2021).

These compounds were tested against recombinant human MGAT2 (Homo sapiens (Human), UniProt Q3SYC2) (assay: Measurement of human MGAT2 inhibitory activity). Details: read-out: IC50 (concentration exhibiting 50% enzyme inhibition), Table 52.
recombinant human MGAT2, sequence (Q3SYC2 whole entry): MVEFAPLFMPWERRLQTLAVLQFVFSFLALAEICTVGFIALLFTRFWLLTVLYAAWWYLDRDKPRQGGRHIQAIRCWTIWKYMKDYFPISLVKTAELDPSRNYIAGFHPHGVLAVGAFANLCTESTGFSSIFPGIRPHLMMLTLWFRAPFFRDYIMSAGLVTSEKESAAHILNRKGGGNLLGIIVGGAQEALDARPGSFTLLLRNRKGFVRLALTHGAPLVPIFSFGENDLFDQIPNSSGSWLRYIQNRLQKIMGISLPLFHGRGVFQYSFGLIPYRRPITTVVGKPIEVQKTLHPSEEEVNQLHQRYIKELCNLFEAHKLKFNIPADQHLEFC
Type: biochemical
Method in brief: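 Membrane fraction of Sf9 cells expressing N-terminally Flag-tagged full-length human MGAT2, incubated 1 h at room temperature in 100 mmol/L phosphate pH 7.4 with 2 mmol/L DTT. The substrate solution held 30 μmol/L 2-oleoylglycerol and 10 μmol/L oleoyl-CoA. Diolein product was quantified by RapidFire ESI Q-TOF MS against diolein-d5 internal standard; % inhibition was set relative to with/without-enzyme controls.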
An IC50 of 2.9 nM was found for `O=C1N[C@@]2(CCc3cc(OCC(F)(F)F)ccc32)Cc2nn(CCC3CC3)c(C(=O)NS(=O)(=O)C(F)(F)F)c21` [Compound I-108] in this work. An IC50 of 300 nM was found for `O=C(NCc1c2c(nn1CCC1CC1)C[C@]1(CCc3cc(OCC(F)(F)F)ccc31)NC2=O)c1ccno1` [Compound I-152] in this work. An IC50 of 3.6 nM was found for `CS(=O)(=O)CC(=O)Nc1c2c(nn1-c1ccc(C#N)cn1)C[C@@]1(CCc3cc(C4CC4)ccc31)NC2=O` [Compound I-242] in this work. An IC50 of 12 nM was found for `CS(=O)(=O)CC(=O)Nc1c2c(nn1CCC1CC1)C[C@](c1ccc(OCC(F)(F)F)cc1F)(C(F)(F)F)NC2=O` [Compound I-171] in this work. An IC50 of 47 nM was found for `O=C1N[C@@]2(CCc3cc(OCC(F)(F)F)ccc32)Cc2nn(CCC3CC3)c(C(=O)NS(=O)(=O)C3CCC3)c21` [Compound I-121] in this work. An IC50 of 38 nM was found for `O=C(Nc1c2c(nn1CCC1CC1)C[C@]1(CCc3cc(OCCCC(F)(F)F)ccc31)NC2=O)c1ccccc1` [Compound I-19] in this work. An IC50 of 550 nM was found for `CS(=O)(=O)CC(=O)Nc1nn(Cc2nc(C(F)(F)F)cs2)c2c1C(=O)N[C@@]1(CCc3cc(OCCCC(F)(F)F)ccc31)C2` [Compound I-210] in this work. An IC50 of 38 nM was found for `O=C1N[C@@]2(CCc3cc(OCC(F)(F)F)ccc32)Cc2nn(CCC3CC3)c(CNC(=O)C3(C(F)(F)F)CC3)c21` [Compound I-157] in this work. An IC50 of 39 nM was found for `O=C1N[C@@]2(CCc3cc(OCC(F)(F)F)ccc32)Cc2nn(CCC3CC3)c(CNC(=O)C3CCC3)c21` [Compound I-147] in this work. An IC50 of 340 nM was found for `CS(=O)(=O)CC(=O)Nc1c2c(nn1CC1CCC(C(F)(F)F)CC1)C[C@]1(CCc3cc(OCCCC(F)(F)F)ccc31)NC2=O` (some centres unmarked) [Compound I-61] in this work. An IC50 of 520 nM was found for `Cc1cccc(Cn2nc(NC(=O)CS(C)(=O)=O)c3c2C[C@]2(CCc4cc(OCCCC(F)(F)F)ccc42)NC3=O)c1` [Compound I-74] in this work. An IC50 of 78 nM was found for `CC(C)(C#N)C(=O)NCc1c2c(nn1CCC1CC1)C[C@]1(CCc3cc(OCC(F)(F)F)ccc31)NC2=O` [Compound I-160] in this work. An IC50 of 370 nM was found for `Cc1cc(C(=O)Nc2c3c(nn2CCC2CC2)C[C@]2(CCc4cc(OCC(F)(F)F)ccc42)NC3=O)ns1` [Compound I-227] in this work. An IC50 of 3.2 nM was found for `CS(=O)(=O)CC(=O)Nc1c2c(nn1Cc1nc(C(F)(F)F)cs1)C[C@]1(CCc3cc(OCCCC(F)(F)F)ccc31)NC2=O` [Compound I-209] in this work. An IC50 of 195 nM was found for `Cc1ccc(-n2nc(NC(=O)CS(C)(=O)=O)c3c2C[C@]2(CCc4cc(OCCCC(F)(F)F)ccc42)NC3=O)cc1` [Compound I-48] in this work. An IC50 of 11 nM was found for `CS(=O)(=O)CC(=O)Nc1c2c(nn1-c1ccc(C3CC3)cc1)C[C@]1(CCc3cc(OCCCC(F)(F)F)ccc31)NC2=O` [Compound I-106] in this work. An IC50 of 6.2 nM was found for `CS(=O)(=O)CC(=O)Nc1c2c(nn1-c1ccc(F)cc1)C[C@]1(CCc3cc(OCC(F)(F)F)ccc31)NC2=O` [Compound I-99] in this work. An IC50 of 29 nM was found for `O=C1N[C@@]2(CCc3cc(OCC(F)(F)F)cc(F)c32)Cc2nn(CCC3CC3)c(-c3nnn[nH]3)c21` [Compound I-278] in this work. An IC50 of 78 nM was found for `CS(=O)(=O)CC(=O)Nc1c2c(nn1Cc1ccc(C(F)(F)F)o1)C[C@]1(CCc3cc(OCCCC(F)(F)F)ccc31)NC2=O` [Compound I-173] in this work. An IC50 of 6.1 nM was found for `Cc1cccc(-n2nc3c(c2NC(=O)CS(C)(=O)=O)C(=O)N[C@@]2(CCc4cc(OCCCC(F)(F)F)ccc42)C3)c1` [Compound I-179] in this work. An IC50 of 160 nM was found for `CS(=O)(=O)CC(=O)Nc1c2c(nn1CCC1CC1)C[C@]1(CCc3cc(C#N)ccc31)NC2=O` [Compound I-93] in this work. An IC50 of 18 nM was found for `O=C1N[C@@]2(CCc3cc(OCC(F)(F)F)ccc32)Cc2nn(CCC3CC3)c(NC(=O)C3CS(=O)(=O)C3)c21` [Compound I-183] in this work. An IC50 of 48 nM was found for `O=C(Nc1c2c(nn1CCC1CC1)C[C@]1(CCc3cc(OCC(F)(F)F)ccc31)NC2=O)c1ccoc1` [Compound I-218] in this work. An IC50 of 9.65 nM was found for `Cc1ccc(-n2nc3c(c2NC(=O)CS(C)(=O)=O)C(=O)N[C@@]2(CCc4cc(OCC(F)(F)F)ccc42)C3)cc1C` [Compound I-132] in this work. An IC50 of 16 nM was found for `CC(C)(O)c1ccc(-n2nc3c(c2NC(=O)CS(C)(=O)=O)C(=O)N[C@@]2(CCc4cc(OCC(F)(F)F)ccc42)C3)nc1` [Compound I-237] in this work. An IC50 of 180 nM was found for `CC(C)(O)C(=O)NCc1c2c(nn1CCC1CC1)C[C@]1(CCc3cc(OCC(F)(F)F)ccc31)NC2=O` [Compound I-155] in this work. An IC50 of 10 nM was found for `CC(C)c1ccc(-n2nc3c(c2NC(=O)CS(C)(=O)=O)C(=O)N[C@@]2(CCc4cc(OCC(F)(F)F)ccc42)C3)nc1` [Compound I-238] in this work. An IC50 of 710 nM was found for `CS(=O)(=O)CC(=O)Nc1c2c(nn1-c1cccc(OC(F)(F)F)c1)C[C@]1(CCc3cc(OCC(F)(F)F)ccc31)NC2=O` [Compound I-126] in this work. An IC50 of 1.2 nM was found for `CS(=O)(=O)CC(=O)Nc1c2c(nn1-c1ccc(C(F)(F)F)cn1)C[C@]1(CCc3cc(OCC(F)(F)F)ccc31)NC2=O` [Compound I-189] in this work.

Same assay, conditions: read-out: IC50 (concentration exhibiting 50% enzyme inhibition), Table 53
An IC50 of 12.6 nM was found for `Cc1nocc1-c1ccc2c(c1)CC[C@@]21Cc2nn(CCC3CC3)c(NC(=O)CS(C)(=O)=O)c2C(=O)N1` [II-71] in this work. An IC50 of 3.48 nM was found for `N#Cc1ccc(-n2nc3c(c2C(=O)NCC2(C(F)F)CC2)C(=O)N[C@@]2(CCc4cc(OCC(F)(F)F)ccc42)C3)nc1` [II-192] in this work. An IC50 of 2.3 nM was found for `CS(=O)(=O)CC(=O)Nc1c2c(nn1-c1ccc(C#N)cn1)CC1(CN(c3c(F)cc(C(F)(F)F)cc3F)C1)NC2=O` [II-74] in this work. An IC50 of 35 nM was found for `CS(=O)(=O)CC(=O)Nc1c2c(nn1CC1CC(F)(F)C1)C[C@]1(CCc3cc(OCC(F)(F)F)ccc31)NC2=O` [II-12] in this work. An IC50 of 1.15 nM was found for `CS(=O)(=O)CC(=O)Nc1c2c(nn1CCCOC(F)F)C[C@@]1(CCc3cc(CCC(F)(F)F)ccc31)NC2=O` [II-286] in this work. An IC50 of 5.79 nM was found for `N#Cc1ccc(-n2nc3c(c2C(=O)NCC2(CO)CC2)C(=O)N[C@@]2(CCc4cc(OCC(F)(F)F)ccc42)C3)nc1` [II-131] in this work. An IC50 of 9.01 nM was found for `Cc1cc(-n2nc3c(c2NC(=O)CS(C)(=O)=O)C(=O)N[C@@]2(CCc4cc(OCC(F)(F)F)ccc42)C3)ccc1F` [II-149] in this work. An IC50 of 188 nM was found for `N#Cc1ccc(-n2nc3c(c2C(=O)N[C@H]2CC[C@@H](O)C2)C(=O)N[C@@]2(CCc4cc(OCC(F)(F)F)ccc42)C3)nc1` [II-133] in this work. An IC50 of 5.01 nM was found for `N#Cc1ccc(-n2nc3c(c2C(=O)NC2CC(F)(F)C2)C(=O)N[C@@]2(CCc4cc(OCC(F)(F)F)ccc42)C3)nc1` [II-188] in this work. An IC50 of 12 nM was found for `CS(=O)(=O)CC(=O)Nc1c2c(nn1CCCCC(F)(F)F)C[C@@]1(CCc3cc(OCC(F)(F)F)ccc31)NC2=O` [II-19] in this work. An IC50 of 60.6 nM was found for `CC(C)(O)CNC(=O)c1c2c(nn1-c1ccc(C#N)cn1)C[C@]1(CCc3cc(OCC(F)(F)F)ccc31)NC2=O` [II-135] in this work. An IC50 of 17 nM was found for `CS(=O)(=O)CC(=O)Nc1c2c(nn1CCC1CC1)C[C@@]1(CCc3cc(NC4CC(F)(F)C4)ccc31)NC2=O` [II-32] in this work. An IC50 of 50.8 nM was found for `CS(=O)(=O)CCNC(=O)c1c2c(nn1-c1ccc(C#N)cn1)C[C@]1(CCc3cc(OCC(F)(F)F)ccc31)NC2=O` [II-111] in this work. An IC50 of 33.7 nM was found for `CCO[C@H]1C[C@H](n2nc3c(c2NC(=O)CS(C)(=O)=O)C(=O)N[C@@]2(CCc4cc(OCC(F)(F)F)ccc42)C3)C1` [II-193] in this work. An IC50 of 48.4 nM was found for `COCCS(=O)(=O)NC(=O)c1c2c(nn1-c1ccc(C)c(F)c1)C[C@]1(CCc3cc(OCC(F)(F)F)ccc31)NC2=O` [II-247] in this work. An IC50 of 10.2 nM was found for `N#CCNC(=O)c1c2c(nn1-c1ccc(C#N)cn1)C[C@]1(CCc3cc(OCC(F)(F)F)ccc31)NC2=O` [II-128] in this work. An IC50 of 19 nM was found for `COc1ccc(-n2nc3c(c2NC(=O)CS(C)(=O)=O)C(=O)N[C@@]2(CCOc4cc(OCC(F)(F)F)ccc42)C3)cc1` [II-6] in this work. An IC50 of 6.58 nM was found for `Cc1ccc(-n2nc3c(c2NC(=O)CS(C)(=N)=O)C(=O)NC2(C3)CN(c3ccc(C(F)(F)F)cc3)C2)nc1` (centres unmarked) [II-308] in this work. An IC50 of 3.78 nM was found for `Cc1cc(-n2nc3c(c2NC(=O)CS(C)(=O)=O)C(=O)N[C@@]2(CCc4cc(OCC(F)(F)F)ccc42)C3)nn1C` [II-205] in this work. An IC50 of 32 nM was found for `CS(=O)(=O)CC(=O)Nc1c2c(nn1-c1ccc(C#N)cn1)C1(Cc3cc(F)c(F)cc3C1)NC2=O` [II-4] in this work. An IC50 of 5.86 nM was found for `CCOc1ccc([C@]2(C)Cc3nn(-c4ccc(C)cn4)c(NC(=O)CS(C)(=O)=O)c3C(=O)N2)c(F)c1` [II-207] in this work. An IC50 of 12.8 nM was found for `CS(=O)(=O)CC(=O)Nc1c2c(nn1-c1ccc(OC(F)F)cc1)C[C@]1(CCc3cc(OCC(F)(F)F)ccc31)NC2=O` [II-141] in this work. An IC50 of 8.83 nM was found for `O=C1N[C@@]2(CCc3cc(OCC(F)(F)F)ccc32)Cc2nn(CCCOC(F)F)c(C(=O)NS(=O)(=O)C3CC3)c21` [II-262] in this work. An IC50 of 4.94 nM was found for `Cc1ccc(-n2nc3c(c2NC(=O)CS(C)(=O)=O)C(=O)N[C@@]2(CCOc4cc(OC(C)C)ccc42)C3)nc1` [II-153] in this work. An IC50 of 46.7 nM was found for `CNC(=O)c1c2c(nn1-c1ccc(C#N)cn1)C[C@]1(CCc3cc(OCC(F)(F)F)ccc31)NC2=O` [II-170] in this work. An IC50 of 1.98 nM was found for `Cc1cc(-n2nc3c(c2NC(=O)CS(C)(=O)=O)C(=O)N[C@@]2(CCc4cc(CCC(F)(F)F)ccc42)C3)nn1C` [II-299] in this work. An IC50 of 11.5 nM was found for `CS(=O)(=O)CC(=O)Nc1c2c(nn1-c1ccc(C#N)c(F)c1)C[C@]1(CCc3cc(OCC(F)(F)F)ccc31)NC2=O` [II-104] in this work. An IC50 of 10.1 nM was found for `N#Cc1ccc(-n2nc3c(c2C(=O)NCC2CC2)C(=O)N[C@@]2(CCc4cc(OCC(F)(F)F)ccc42)C3)nc1` [II-179] in this work. An IC50 of 7.02 nM was found for `CCOc1ccc2c(c1)CC[C@]21Cc2nn(-c3ccc(C)cn3)c(NC(=O)CS(C)(=O)=O)c2C(=O)N1` [II-159] in this work. An IC50 of 89.2 nM was found for `Cc1ccc(-n2nc3c(c2C(=O)NS(=O)(=O)c2ccccc2)C(=O)N[C@@]2(CCc4cc(OCC(F)(F)F)ccc42)C3)nc1` [II-210] in this work. An IC50 of 2.55 nM was found for `Cc1ccc(-n2nc3c(c2NC(=O)CS(C)(=O)=O)C(=O)N[C@@]2(CCOc4cc(OCC(F)F)ccc42)C3)nc1` [II-146] in this work. An IC50 of 1.81 nM was found for `Cc1cc(-n2nc3c(c2NC(=O)CS(C)(=O)=O)C(=O)N[C@@]2(CCOc4cc(Cl)ccc42)C3)no1` [II-266] in this work. An IC50 of 2.49 nM was found for `CS(=O)(=O)CC(=O)Nc1c2c(nn1CCC1CC1)C[C@@]1(CCc3cc(OCC4CC(F)(F)C4)ccc31)NC2=O` [II-82] in this work.
